Columns and labels:
[1] = molecular target: T1, KLHDC2 (Homo sapiens (Human), UniProt Q9Y2U9); experiment: Sypro orange thermal stability (thermal shift) assay; assay type: binding
Description: To identify small molecules that bind to KLHDC2 the Sypro orange thermal stability assay was utilized. […] Assay solution containing 0.5 μM KLHDC2, 25 mM HEPES, 200 mM NaCl and 5% Sypro Orange pH 7.5 was added to a final volume of 20 ul and a final experimental ligand concentration of 50 uM. DMSO alone was included as a negative control and peptide sub2 was included as a positive control at 100 uM. The fluorescence of Sypro orange in each sample was measured on a Quantstudio 5 or a Quantstudio 6 at temperatures ranging from 23 to 75° C. at 0.05° C./second. Data reduction resulting in thermal stability (calculated using the Boltzmann and first derivative minima equations) was completed in the Thermo Scientific protein thermal shift software v1.4.

[2] = molecular target: T1, KLHDC2; experiment: Time-resolved fluorescence energy transfer (TR-FRET) assay with Bodipy-labeled ligand probe; assay type: binding
Source text: The integration start was set to 100 μs, and the integration time was set to 200 μs. The number of flashes was fixed at 100.

T1 sequence (Q9Y2U9 whole entry): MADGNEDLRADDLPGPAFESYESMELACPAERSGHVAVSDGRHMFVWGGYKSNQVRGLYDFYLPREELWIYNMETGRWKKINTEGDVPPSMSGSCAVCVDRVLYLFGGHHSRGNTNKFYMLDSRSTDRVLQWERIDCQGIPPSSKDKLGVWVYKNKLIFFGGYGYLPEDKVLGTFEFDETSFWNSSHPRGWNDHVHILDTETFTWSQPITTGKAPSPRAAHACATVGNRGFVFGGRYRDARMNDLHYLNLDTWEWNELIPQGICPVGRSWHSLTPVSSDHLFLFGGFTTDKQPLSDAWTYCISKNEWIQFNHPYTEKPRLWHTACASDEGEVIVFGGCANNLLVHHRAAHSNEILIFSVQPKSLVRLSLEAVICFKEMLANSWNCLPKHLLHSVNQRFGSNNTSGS

Compound | ΔTm (° C.) 50 μM ligand ([1]; Table 1, 0.5 μM KLHDC2) | IC50 ([2]; Table 1) | ΔTm (° C.) 50 μM ligand ([1]; Table 2, 0.5 μM KLHDC2) | IC50 ([2]; Table 2)
O=C(O)CNC(=O)Cc1csc(-c2cccc3ccncc23)n1 [Compound 9, (2-(2-(Isoquinolin-8-yl)Thiazol-4-yl)Acetyl)Glycine] | 1.8 ± 0.0 °C | 20.3 µM | – | –
COCCOc1cccc2ccc(-c3nc(CC(=O)NCC(=O)O)cs3)cc12 [Compound 15A] | – | – | 4.3 ± 0.2 °C | 1.1 µM
O=C(O)CNC(=O)Cc1csc(-c2ccc3ccn(CCCN4CCNCC4)c3c2)n1 [Compound 24, (2-(2-(1-(3-(Piperazin-1-yl)Propyl)-1H-Indol-6-yl)Thiazol-4-yl)Acetyl)Glycine] | – | – | – | 1.2 µM
COc1ccc2cc(-c3nc(CC(=O)NCC(=O)O)cs3)ccc2c1 [Compound 10, (2-(2-(6-Methoxynaphthalen-2-yl)Thiazol-4-yl)Acetyl)Glycine] | 3.9 ± 0.1 °C | 9.6 µM | – | –
O=C(O)CNC(=O)Cc1csc(-c2ccc3c(c2)NCCO3)n1 [Compound 27, (2-(2-(3,4-Dihydro-2H-Benzo[B][1,4]Oxazin-6-yl)Thiazol-4-yl)Acetyl)Glycine] | – | 3 µM | – | –
O=C(O)CNC(=O)Cc1csc(-c2ccc3ccccc3c2F)n1 [Compound 13, (2-(2-(1-Fluoronaphthalen-2-yl)Thiazol-4-yl)Acetyl)Glycine] | 6.0 ± 0.2 °C | 1.8 µM | – | –
O=C(O)CNC(=O)Cc1csc(-c2cccc3ccccc23)n1 [Compound 12, (2-(2-(Naphthalen-1-yl)Thiazol-4-yl)Acetyl)Glycine] | 3.7 ± 0.0 °C | 8.8 µM | – | –
O=C(O)CNC(=O)Cc1csc(-c2ccc3ccccc3c2)n1 [Compound 8, (2-(2-(Naphthalen-2-yl)Thiazol-4-yl)Acetyl)Glycine] | 6.0 ± 0.0 °C | 3.9 µM | – | –
O=C(O)CNC(=O)Cc1csc(-c2ccc3cccc(OCCN4CCNCC4)c3c2)n1 [Compound 19, (2-(2-(8-(2-(Piperazin-1-yl)Ethoxy)Naphthalen-2-yl)Thiazol-4-yl)Acetyl)Glycine] | – | – | 4.8 ± 0.0 °C | 1.6 µM
O=C(O)CNC(=O)Cc1csc(-c2cccc3cccnc23)n1 [Compound 11, (2-(2-(Quinolin-8-yl)Thiazol-4-yl)Acetyl)Glycine] | 2.7 ± 0.4 °C | 7.1 µM | – | –
O=C(O)CNC(=O)Cc1csc(-c2ccc3cc[nH]c3c2)n1 [Compound 23, (2-(2-(1H-Indol-6-yl)Thiazol-4-yl)Acetyl)Glycine] | – | 1.1 µM | – | –
COc1ccc2ccc(-c3nc(CC(=O)NCC(=O)O)cs3)cc2c1 [Compound 14, (2-(2-(7-Methoxynaphthalen-2-yl)Thiazol-4-yl)Acetyl)Glycine] | 4.3 ± 0.2 °C | 1.7 µM | – | –
COCOc1ccc(-c2nc(CC(=O)NCC(=O)O)cs2)c(Cl)c1 [i] | 3.52 ± 0.424 °C | 24.1 µM | – | –

Source: patent US20250163075A1, “HETEROBI[…] PROTEIN […]” (priority 2023, published 2025)
